Reference: PMC8584173, “The Cytotoxic Effect of Copper (II) Complexes with Halogenated 1,3-Disubstituted Arylthioureas on Cancer and Bacterial Cells” (International Journal of Molecular Sciences, 2021)

Experiments:
S. aureus 586 = assay: MIC, hospital MRSA strain; type: cell-based, Staphylococcus aureus; conditions: hospital MRSA S. aureus 586
Method: (§1) The antimicrobial activity of the compounds was tested on Gram-positive bacteria (Staphylococcus aureus NCTC 4163, Staphylococcus aureus ATCC 25923, Staphylococcus aureus ATCC 6538, Staphylococcus aureus ATCC 29213, Staphylococcus epidermidis ATCC 12228, Staphylococcus epidermidis ATCC 35984), Gram-negative rods (Escherichia coli ATCC 10538, Escherichia coli ATCC 25922, Pseudomonas aeruginosa ATCC 15442, Pseudomonas aeruginosa ATCC 27863) and yeasts (Candida albicans ATCC 10231, Candida albicans ATCC 90028, Candida parapsilosis ATCC 22019). Hospital methicillin-resistant strains of Staphylococcus aureus and Staphylococcus epidermidis were obtained from the collection of the Department of Pharmaceutical Microbiology, Medical University of Warsaw, Poland.
(§2) Antifungal activities were assessed using Mueller–Hinton agar + 2% glucose and 0.5 µg/mL methylene blue dye medium. Sterile filter paper discs (9 mm diameter, Whatman Number 3 chromatography paper) were dripped with tested compound solutions (in dimethylsulfoxide, DMSO) to load 400 μg of a given compound per disc. Dry discs were placed on the surface of appropriate agar medium. The results (diameter of the growth inhibition zone) were read after 18 h of incubation at 35 °C. Minimal inhibitory concentration (MIC) was tested by the twofold serial microdilution method (in 96-well microtiter plates) using Mueller–Hinton broth medium (Beckton Dickinson) for bacteria or RPMI-1640 medium for Candida species, according to CLSI guidelines. The stock solution of tested agent was prepared in DMSO and diluted in sterile water. […] The final inoculum of all studied microorganisms was 10^5 CFU/ mL^−1 (colony forming units per ml). Minimal inhibitory concentrations (the lowest concentration of a tested agent that prevents visible growth of a microorganism) were read after 18 h (bacteria) or 24 h (yeasts) of incubation at 35 °C.

S. aureus 495 = assay: MIC, hospital MRSA strain; type: cell-based, Staphylococcus aureus; conditions: hospital MRSA S. aureus 495
Method: as §1, §2

S. aureus 573 = assay: MIC, hospital MRSA strain; type: cell-based, Staphylococcus aureus; conditions: hospital MRSA S. aureus 573
Method: as §1, §2

S. aureus 537 = assay: MIC, hospital MRSA strain; type: cell-based, Staphylococcus aureus; conditions: hospital MRSA S. aureus 537
Method: as §1, §2

S. aureus 481 = assay: MIC, hospital MRSA strain; type: cell-based, Staphylococcus aureus; conditions: for MIC: hospital MRSA S. aureus 481; for times more active than ciprofloxacin: S. aureus 481
Method: as §1, §2

S. aureus 572 = assay: MIC, hospital MRSA strain; type: cell-based, Staphylococcus aureus; conditions: for MIC: hospital MRSA S. aureus 572; for times more active than ciprofloxacin: S. aureus 572
Method: as §1, §2

S. aureus 496 = assay: MIC, hospital MRSA strain; type: cell-based, Staphylococcus aureus; conditions: hospital MRSA S. aureus 496
Method: as §1, §2

S. aureus 497 = assay: MIC, hospital MRSA strain; type: cell-based, Staphylococcus aureus; conditions: hospital MRSA S. aureus 497
Method: as §1, §2

S. aureus 567 = assay: MIC, hospital MRSA strain; type: cell-based, Staphylococcus aureus; conditions: hospital MRSA S. aureus 567
Method: as §1, §2

S. aureus ATCC 29213 = assay: MIC, twofold serial microdilution; type: cell-based, Staphylococcus aureus; conditions: S. aureus ATCC 29213, 18 h, 35 °C
Method: as §1, §2

S. aureus ATCC 25923 = assay: MIC, twofold serial microdilution; type: cell-based, Staphylococcus aureus; conditions: S. aureus ATCC 25923, 18 h, 35 °C
Method: as §1, §2

S. aureus ATCC 6538 = assay: MIC, twofold serial microdilution; type: cell-based, Staphylococcus aureus; conditions: S. aureus ATCC 6538, 18 h, 35 °C
Method: as §1, §2

S. aureus NCTC 4163 = assay: MIC, twofold serial microdilution; type: cell-based, Staphylococcus aureus; conditions: S. aureus NCTC 4163, 18 h, 35 °C
Method: as §1, §2

S. epidermidis 469 = assay: MIC, hospital MRSE strain; type: cell-based, Staphylococcus epidermidis; conditions: hospital MRSE S. epidermidis 469
Method: as §1, §2

S. epidermidis 471 = assay: MIC, hospital MRSE strain; type: cell-based, Staphylococcus epidermidis; conditions: hospital MRSE S. epidermidis 471
Method: as §1, §2

S. epidermidis 437 = assay: MIC, hospital MRSE strain; type: cell-based, Staphylococcus epidermidis; conditions: hospital MRSE S. epidermidis 437
Method: as §1, §2

S. epidermidis 433 = assay: MIC, hospital MRSE strain; type: cell-based, Staphylococcus epidermidis; conditions: hospital MRSE S. epidermidis 433
Method: as §1, §2

S. epidermidis 432 = assay: MIC, hospital MRSE strain; type: cell-based, Staphylococcus epidermidis; conditions: hospital MRSE S. epidermidis 432
Method: as §1, §2

S. epidermidis 423 = assay: MIC, hospital MRSE strain; type: cell-based, Staphylococcus epidermidis; conditions: hospital MRSE S. epidermidis 423
Method: as §1, §2

S. epidermidis 431 = assay: MIC, hospital MRSE strain; type: cell-based, Staphylococcus epidermidis; conditions: hospital MRSE S. epidermidis 431
Method: as §1, §2

S. epidermidis 515 = assay: MIC, hospital MRSE strain; type: cell-based, Staphylococcus epidermidis; conditions: hospital MRSE S. epidermidis 515
Method: as §1, §2

S. epidermidis 424 = assay: MIC, hospital MRSE strain; type: cell-based, Staphylococcus epidermidis; conditions: hospital MRSE S. epidermidis 424
Method: as §1, §2

S. epidermidis 513 = assay: MIC, hospital MRSE strain; type: cell-based, Staphylococcus epidermidis; conditions: hospital MRSE S. epidermidis 513
Method: as §1, §2

S. epidermidis 420 = assay: MIC, hospital MRSE strain; type: cell-based, Staphylococcus epidermidis; conditions: hospital MRSE S. epidermidis 420
Method: as §1, §2

S. epidermidis 510 = assay: MIC, hospital MRSE strain; type: cell-based, Staphylococcus epidermidis; conditions: hospital MRSE S. epidermidis 510
Method: as §1, §2

S. epidermidis 435 = assay: MIC, hospital MRSE strain; type: cell-based, Staphylococcus epidermidis; conditions: hospital MRSE S. epidermidis 435
Method: as §1, §2

S. epidermidis 436 = assay: MIC, hospital MRSE strain; type: cell-based, Staphylococcus epidermidis; conditions: hospital MRSE S. epidermidis 436
Method: as §1, §2

S. epidermidis 511 = assay: MIC, hospital MRSE strain; type: cell-based, Staphylococcus epidermidis; conditions: hospital MRSE S. epidermidis 511
Method: as §1, §2

S. epidermidis 438 = assay: MIC, hospital MRSE strain; type: cell-based, Staphylococcus epidermidis; conditions: hospital MRSE S. epidermidis 438
Method: as §1, §2

Structure (SMILES)	MIC (S. aureus 586)	MIC (S. aureus 495)	MIC (S. aureus 573)	MIC (S. aureus 537)	MIC (S. aureus 481)	MIC (S. aureus 572)	MIC (S. aureus 496)	MIC (S. aureus 497)	MIC (S. aureus 567)	MIC (S. aureus ATCC 29213)	MIC (S. aureus ATCC 25923)	MIC (S. aureus ATCC 6538)	MIC (S. aureus NCTC 4163)	MIC (S. epidermidis 469)	MIC (S. epidermidis 471)	MIC (S. epidermidis 437)	MIC (S. epidermidis 433)	MIC (S. epidermidis 432)	MIC (S. epidermidis 423)	MIC (S. epidermidis 431)	further results
O=[N+]([O-])c1cc([N+]2=C(Nc3ccccc3Br)[S][Cu-2]23[S]C(Nc2ccccc2Br)=[N+]3c2ccc(Cl)c([N+](=O)[O-])c2)ccc1Cl [Compound 1, Copper (II) complex with 1-(2-bromophenyl)-3-(4-chloro-3-nitrophenyl)thiourea]	4 µg/mL	8 µg/mL	8 µg/mL	8 µg/mL	8 µg/mL	8 µg/mL	8 µg/mL	8 µg/mL	8 µg/mL	8 µg/mL	8 µg/mL	8 µg/mL	8 µg/mL	8 µg/mL	8 µg/mL	8 µg/mL	4 µg/mL	8 µg/mL	8 µg/mL	8 µg/mL	MIC (S. epidermidis 515): 4 µg/mL; MIC (S. epidermidis 424): 8 µg/mL; MIC (S. epidermidis 513): 8 µg/mL; MIC (S. epidermidis 420): 4 µg/mL; MIC (S. epidermidis 510): 8 µg/mL; MIC (S. epidermidis 435): 8 µg/mL; MIC (S. epidermidis 436): 8 µg/mL; MIC (S. epidermidis 511): 8 µg/mL; MIC (S. epidermidis 438): 8 µg/mL
O=[N+]([O-])c1cc([N+]2=C(Nc3ccc(Cl)c(Cl)c3)[S][Cu-2]23[S]C(Nc2ccc(Cl)c(Cl)c2)=[N+]3c2ccc(Cl)c([N+](=O)[O-])c2)ccc1Cl [Compound 5, Copper (II) complex with 1-(4-chloro-3-nitrophenyl)-3-(3,4-dichlorophenyl)thiourea]	16 µg/mL	16 µg/mL	16 µg/mL	16 µg/mL	16 µg/mL	16 µg/mL	32 µg/mL	16 µg/mL	16 µg/mL	32 µg/mL	32 µg/mL	32 µg/mL	32 µg/mL	32 µg/mL	32 µg/mL	32 µg/mL	32 µg/mL	32 µg/mL	32 µg/mL	16 µg/mL	MIC (S. epidermidis 515): 32 µg/mL; MIC (S. epidermidis 424): 32 µg/mL; MIC (S. epidermidis 513): 16 µg/mL; MIC (S. epidermidis 420): 32 µg/mL; MIC (S. epidermidis 510): 16 µg/mL; MIC (S. epidermidis 435): 32 µg/mL; MIC (S. epidermidis 436): 32 µg/mL; MIC (S. epidermidis 511): 32 µg/mL; MIC (S. epidermidis 438): 32 µg/mL
O=[N+]([O-])c1cc([N+]2=C(Nc3ccc(I)cc3)[S][Cu-2]23[S]C(Nc2ccc(I)cc2)=[N+]3c2ccc(Cl)c([N+](=O)[O-])c2)ccc1Cl [Compound 8, Copper (II) complex with 1-(4-iodophenyl)-3-(4-chloro-3-nitrophenyl)thiourea]	8 µg/mL	4 µg/mL	8 µg/mL	8 µg/mL	4 µg/mL	4 µg/mL	8 µg/mL	8 µg/mL	8 µg/mL	4 µg/mL	4 µg/mL	4 µg/mL	4 µg/mL	8 µg/mL	8 µg/mL	8 µg/mL	4 µg/mL	8 µg/mL	8 µg/mL	8 µg/mL	times more active than ciprofloxacin (S. aureus 481): 64 times; times more active than ciprofloxacin (S. aureus 572): 64 times; MIC (S. epidermidis 515): 8 µg/mL; MIC (S. epidermidis 424): 8 µg/mL; MIC (S. epidermidis 513): 8 µg/mL; MIC (S. epidermidis 420): 8 µg/mL; MIC (S. epidermidis 510): 8 µg/mL; MIC (S. epidermidis 435): 8 µg/mL; MIC (S. epidermidis 436): 8 µg/mL; MIC (S. epidermidis 511): 8 µg/mL; MIC (S. epidermidis 438): 8 µg/mL
O=[N+]([O-])c1cc([N+]2=C(Nc3ccccc3F)[S][Cu-2]23[S]C(Nc2ccccc2F)=[N+]3c2ccc(Cl)c([N+](=O)[O-])c2)ccc1Cl [Compound 7, Copper (II) complex with 1-(2-fluorophenyl)-3-(4-chloro-3-nitrophenyl)thiourea]	8 µg/mL	8 µg/mL	8 µg/mL	8 µg/mL	4 µg/mL	4 µg/mL	8 µg/mL	8 µg/mL	4 µg/mL	32 µg/mL	32 µg/mL	32 µg/mL	32 µg/mL	8 µg/mL	8 µg/mL	8 µg/mL	8 µg/mL	8 µg/mL	8 µg/mL	8 µg/mL	times more active than ciprofloxacin (S. aureus 481): 64 times; times more active than ciprofloxacin (S. aureus 572): 64 times; MIC (S. epidermidis 515): 8 µg/mL; MIC (S. epidermidis 424): 8 µg/mL; MIC (S. epidermidis 513): 8 µg/mL; MIC (S. epidermidis 420): 8 µg/mL; MIC (S. epidermidis 510): 8 µg/mL; MIC (S. epidermidis 435): 8 µg/mL; MIC (S. epidermidis 436): 8 µg/mL; MIC (S. epidermidis 511): 8 µg/mL; MIC (S. epidermidis 438): 8 µg/mL
O=[N+]([O-])c1cc([N+]2=C(Nc3ccc(Br)cc3)[S][Cu-2]23[S]C(Nc2ccc(Br)cc2)=[N+]3c2ccc(Cl)c([N+](=O)[O-])c2)ccc1Cl [Compound 3, Copper (II) complex with 1-(4-bromophenyl)-3-(4-chloro-3-nitrophenyl)thiourea]	4 µg/mL	4 µg/mL	4 µg/mL	4 µg/mL	4 µg/mL	4 µg/mL	4 µg/mL	4 µg/mL	4 µg/mL	16 µg/mL	8 µg/mL	8 µg/mL	8 µg/mL	4 µg/mL	8 µg/mL	8 µg/mL	4 µg/mL	4 µg/mL	4 µg/mL	4 µg/mL	times more active than ciprofloxacin (S. aureus 481): 64 times; times more active than ciprofloxacin (S. aureus 572): 64 times; MIC (S. epidermidis 515): 8 µg/mL; MIC (S. epidermidis 424): 4 µg/mL; MIC (S. epidermidis 513): 4 µg/mL; MIC (S. epidermidis 420): 8 µg/mL; MIC (S. epidermidis 510): 4 µg/mL; MIC (S. epidermidis 435): 4 µg/mL; MIC (S. epidermidis 436): 4 µg/mL; MIC (S. epidermidis 511): 4 µg/mL; MIC (S. epidermidis 438): 4 µg/mL
